Article PMC10116527 (ACS Omega, 2023)
Where two headings read alike, the source gives them in different places.

How the values were obtained:
PI3Kα [1] = target: T1, PI3Kα (Homo sapiens, UniProt P42336); test: Adapta universal kinase assay; format: biochemical; settings: read-out: % inhibition against PI3Kα enzyme ± SD ^b
PI3Kα [2] = target: T1, PI3Kα; test: Adapta universal kinase assay; format: biochemical; settings: read-out: % inhibition against PI3Kα enzyme ± SD ^b; remark: listed apart in the source

T1 sequence (P42336 whole entry): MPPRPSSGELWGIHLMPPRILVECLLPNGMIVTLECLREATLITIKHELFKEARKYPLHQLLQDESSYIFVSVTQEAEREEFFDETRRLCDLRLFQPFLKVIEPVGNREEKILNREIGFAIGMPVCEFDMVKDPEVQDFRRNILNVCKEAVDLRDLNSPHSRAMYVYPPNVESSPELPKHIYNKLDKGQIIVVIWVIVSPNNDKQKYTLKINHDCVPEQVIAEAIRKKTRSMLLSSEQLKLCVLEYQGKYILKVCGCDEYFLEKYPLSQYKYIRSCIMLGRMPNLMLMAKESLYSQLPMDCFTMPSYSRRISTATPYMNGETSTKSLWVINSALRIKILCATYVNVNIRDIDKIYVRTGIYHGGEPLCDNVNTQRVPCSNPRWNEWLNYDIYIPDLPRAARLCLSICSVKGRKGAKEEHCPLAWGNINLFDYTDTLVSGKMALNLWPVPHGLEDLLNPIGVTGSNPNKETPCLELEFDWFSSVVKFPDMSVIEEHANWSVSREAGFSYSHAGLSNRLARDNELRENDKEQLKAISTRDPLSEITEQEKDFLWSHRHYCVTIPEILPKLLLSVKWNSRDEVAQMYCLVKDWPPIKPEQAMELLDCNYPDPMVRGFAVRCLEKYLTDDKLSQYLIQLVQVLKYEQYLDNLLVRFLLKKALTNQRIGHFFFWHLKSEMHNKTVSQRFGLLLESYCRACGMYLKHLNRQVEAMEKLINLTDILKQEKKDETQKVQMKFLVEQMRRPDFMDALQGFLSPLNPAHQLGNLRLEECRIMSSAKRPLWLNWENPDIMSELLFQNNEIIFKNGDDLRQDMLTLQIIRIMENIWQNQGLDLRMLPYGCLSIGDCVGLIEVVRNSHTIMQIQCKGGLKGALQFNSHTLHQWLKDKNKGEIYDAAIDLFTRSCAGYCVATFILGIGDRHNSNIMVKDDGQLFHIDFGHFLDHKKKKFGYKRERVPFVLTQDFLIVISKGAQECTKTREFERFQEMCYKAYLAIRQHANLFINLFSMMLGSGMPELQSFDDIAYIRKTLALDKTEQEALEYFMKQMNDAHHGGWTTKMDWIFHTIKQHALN
T1 sequence (P27986 2-724, further chain): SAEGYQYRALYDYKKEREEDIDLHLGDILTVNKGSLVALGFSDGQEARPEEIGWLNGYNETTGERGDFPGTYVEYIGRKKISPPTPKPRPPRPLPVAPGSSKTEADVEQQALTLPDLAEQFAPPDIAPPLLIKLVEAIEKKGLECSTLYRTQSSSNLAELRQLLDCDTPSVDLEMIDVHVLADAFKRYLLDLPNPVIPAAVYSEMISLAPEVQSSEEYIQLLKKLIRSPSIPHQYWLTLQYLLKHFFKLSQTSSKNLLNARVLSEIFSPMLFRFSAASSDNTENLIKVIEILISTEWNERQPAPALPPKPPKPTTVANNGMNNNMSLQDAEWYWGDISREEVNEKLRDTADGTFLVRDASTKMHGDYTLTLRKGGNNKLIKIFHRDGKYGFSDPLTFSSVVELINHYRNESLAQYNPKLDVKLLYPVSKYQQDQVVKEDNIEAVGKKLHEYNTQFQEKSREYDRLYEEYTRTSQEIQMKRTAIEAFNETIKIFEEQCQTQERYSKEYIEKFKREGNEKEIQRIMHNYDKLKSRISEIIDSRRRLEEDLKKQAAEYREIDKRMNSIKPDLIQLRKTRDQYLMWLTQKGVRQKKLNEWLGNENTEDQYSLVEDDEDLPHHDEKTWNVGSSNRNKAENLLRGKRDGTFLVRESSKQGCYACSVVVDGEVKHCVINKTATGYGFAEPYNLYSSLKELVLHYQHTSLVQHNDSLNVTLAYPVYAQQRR

`CCN(CC)c1nc(Nc2ccc(S(=O)(=O)NC(=N)N)cc2)nc(N2CCOCC2)n1` [compound 34, 1-(4-{[4-(Diethylamino)-6-(morpholin-4-yl)-1,3,5-triazin-2-yl]amino}benzene-sulfonyl)guanidine] was tested, and the inhibition at 100 µM (PI3Kα [1]) was 68 ± 3%.
For `CCN(CC)c1nc(NCc2ccccc2)nc(Nc2ccc(S(=O)(=O)Nc3ccccn3)cc2)n1` [compound 20, 4-{[4-(Benzylamino)-6-(diethylamino)-1,3,5-triazin-2-yl]amino}-N-(pyridin-2-yl)benzene-1-sulfonamide], the inhibition at 100 µM (PI3Kα [2]) was 46%.
